In US10618903B2, “Heteroaryl substituted aminopyridine compounds” (BRISTOL-MYERS SQUIBB COMPANY, priority 2015, dated 2020):

molecular target: IRAK4 (Homo sapiens (Human), UniProt Q9NWZ3); test: IRAK4 Inhibition Assay; assay type: biochemical; conditions: ATP 500 μM; IRAK4 0.6 nM
Experimental: The assays were performed in U-bottom 384-well plates. The final assay volume was 30 μL prepared from 15 μL additions of enzyme and substrates (fluoresceinated peptide and ATP) and test compounds in assay buffer (20 mM HEPES pH 7.2, 10 mM MgCl2, 0.015% Brij 35 and 4 mM DTT). The reaction was initiated by the combination of IRAK4 with substrates and test compounds. The reaction mixture was incubated at room temperature for 60 min. and terminated by adding 45 μL of 35 mM EDTA to each sample. The reaction mixture was analyzed on the Caliper LABCHIP® 3000 (Caliper, Hopkinton, Mass.) by electrophoretic separation of the fluorescent substrate and phosphorylated product. Inhibition data were calculated by comparison to no enzyme control reactions for 100% inhibition and vehicle-only reactions for 0% inhibition. The final concentrations of reagents in the assays are ATP, 500 μM; FL-IPTSPITTTYFFFKKK peptide 1.5 μM; IRAK4, 0.6 nM; and DMSO, 1.6%.

Sequence of IRAK4 (Q9NWZ3 whole entry): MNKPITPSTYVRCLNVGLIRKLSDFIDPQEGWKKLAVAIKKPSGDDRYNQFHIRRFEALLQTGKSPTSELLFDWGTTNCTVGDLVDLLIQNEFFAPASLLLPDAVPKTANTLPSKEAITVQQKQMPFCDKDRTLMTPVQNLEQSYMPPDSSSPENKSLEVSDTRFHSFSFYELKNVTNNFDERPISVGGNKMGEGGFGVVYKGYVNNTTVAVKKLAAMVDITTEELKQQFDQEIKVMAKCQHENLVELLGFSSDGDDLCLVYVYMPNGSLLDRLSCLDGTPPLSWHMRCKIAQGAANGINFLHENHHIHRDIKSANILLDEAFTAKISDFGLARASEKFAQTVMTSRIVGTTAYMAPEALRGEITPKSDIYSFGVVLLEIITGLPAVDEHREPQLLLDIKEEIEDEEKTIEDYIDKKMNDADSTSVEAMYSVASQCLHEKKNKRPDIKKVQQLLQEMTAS

SMILES	IC50 [nM]
COC1CCC(F)(CCNC(=O)c2cnc(-c3cnn4cc(Cl)cnc34)cc2NC2COC2)CC1 (stereo not shown) [Example 17, 6-(6-chloropyrazolo[1,5-a]pyrimidin-3-yl)-N-(2-(1-fluoro-4-methoxycyclohexyl)ethyl)-4-(oxetan-3-ylamino)nicotinamide]	19
COC1CCC(O)(CCNC(=O)c2cnc(-c3cnn4cc(Cl)cnc34)cc2NC2COC2)CC1 (stereo not shown) [Example 79, 6-(6-chloropyrazolo[1,5-a]pyrimidin-3-yl)-N-(2-(1-hydroxy-4-methoxycyclohexyl)ethyl)-4-(oxetan-3-ylamino)nicotinamide]	14
CC1(CNc2cc(-c3cnn4cc(Cl)cnc34)ncc2C(=O)NC[C@@H](F)C(C)(C)O)COC1 [Example 38, (R)-6-(6-chloropyrazolo[1,5-a]pyrimidin-3-yl)-N-(2-fluoro-3-hydroxy-3-methylbutyl)-4-(((3-methyloxetan-3-yl)methyl)amino)nicotinamide]	7
CC(C)Nc1cc(-c2cnn3cc(Cl)cnc23)ncc1C(=O)NCC(=O)N1CCC2(CCO2)CC1 [Example 63, 6-(6-chloropyrazolo[1,5-a]pyrimidin-3-yl)-4-(isopropylamino)-N-(2-oxo-2-(1-oxa-7-azaspiro[3.5]nonan-7-yl)ethyl)nicotinamide]	8
CC(C)Nc1cc(-c2cnn3cc(Cl)cnc23)ncc1C(=O)N[C@H]1CC[C@H](NC(=O)C(C)(C)O)CC1 [Example 78, 6-(6-chloropyrazolo[1,5-a]pyrimidin-3-yl)-N-((1r,4r)-4-(2-hydroxy-2-methylpropanamido)cyclohexyl)-4-(isopropylamino)nicotinamide]	29
CNC(=O)Cn1cc(NC(=O)c2cnc(-c3cnn4cc(Cl)cnc34)cc2NC(C)C)cn1 [Example 45, 6-(6-chloropyrazolo[1,5-a]pyrimidin-3-yl)-4-(isopropylamino)-N-(1-(2-(methylamino)-2-oxoethyl)-1H-pyrazol-4-yl)nicotinamide]	34
CC(C)(O)[C@H](F)CNC(=O)c1cnc(-c2cnn3cc(Cl)cnc23)cc1NCC1(O)COC1 [Example 39, (R)-6-(6-chloropyrazolo[1,5-a]pyrimidin-3-yl)-N-(2-fluoro-3-hydroxy-3-methylbutyl)-4-(((3-hydroxyoxetan-3-yl)methyl)amino)nicotinamide]	18
CC(C)(C)Nc1cc(-c2cnn3cc(Cl)cnc23)ncc1C(=O)NC[C@@H](F)C(C)(C)O [Example 72, (R)-4-(tert-butylamino)-6-(6-chloropyrazolo[1,5-a]pyrimidin-3-yl)-N-(2-fluoro-3-hydroxy-3-methylbutyl) nicotinamide]	2
CC(C)(F)CCNC(=O)c1cnc(-c2cnn3cc(Cl)cnc23)cc1NC1COC1 [Example 12, 6-(6-chloropyrazolo[1,5-a]pyrimidin-3-yl)-N-(3-fluoro-3-methylbutyl)-4-(oxetan-3-ylamino)nicotinamide]	92
CO[C@H]1CC[C@H](NC(=O)c2cnc(-c3cnn4cc(Cl)cnc34)cc2NC(C)C)CC1 [Example 11, 6-(6-chloropyrazolo[1,5-a]pyrimidin-3-yl)-4-(isopropylamino)-N-((1R,4R)-4-methoxycyclohexyl)nicotinamide]	14
CC(C)(O)[C@H](F)CNC(=O)c1cnc(-c2cnn3cc(Cl)cnc23)cc1N[C@H]1C[C@H](C(C)(C)O)C1 [Example 59, 6-(6-chloropyrazolo[1,5-a]pyrimidin-3-yl)-N—((R)-2-fluoro-3-hydroxy-3-methylbutyl)-4-(((1r,3R)-3-(2-hydroxypropan-2-yl)cyclobutyl)amino)nicotinamide]	6
CC[C@H](O)CNc1cc(-c2cnn3cc(Cl)cnc23)ncc1C(=O)NC[C@@H](F)C(C)(C)O [Example 81, 6-(6-chloropyrazolo[1,5-a]pyrimidin-3-yl)-N—((R)-2-fluoro-3-hydroxy-3-methylbutyl)-4-(((S)-2-hydroxybutyl)amino)nicotinamide]	26
CC(C)(O)[C@H](F)CNC(=O)c1cnc(-c2cnn3cc(Cl)cnc23)cc1NC1CCOC1 (stereo partly drawn) [Example 54, 6-(6-chloropyrazolo[1,5-a]pyrimidin-3-yl)-N—((R)-2-fluoro-3-hydroxy-3-methylbutyl)-4-((tetrahydrofuran-3-yl)amino)nicotinamide]	3
CC(C)Nc1cc(-c2cnn3cc(Cl)cnc23)ncc1C(=O)NC1CCN(S(=O)(=O)C(C)C)CC1 [Example 74, 6-(6-chloropyrazolo[1,5-a]pyrimidin-3-yl)-4-(isopropylamino)-N-(1-(isopropylsulfonyl)piperidin-4-yl)nicotinamide]	26
CC(C)Nc1cc(-c2cnn3cc(Cl)cnc23)ncc1C(=O)NCC(F)C(O)(CO)CO (stereo not shown) [Example 8, 6-(6-chloropyrazolo[1,5-a]pyrimidin-3-yl)-N-(2-fluoro-3,4-dihydroxy-3-(hydroxymethyl)butyl)-4-(isopropylamino)nicotinamide]	24

Second part, the compound after the results:

IC50 [nM]	SMILES
11	CC(C)Nc1cc(-c2cnc3ccc(NCC(C)(C)O)nn23)ncc1C(=O)NC[C@@H](F)C(C)(C)O [Example 151, (R)—N-(2-fluoro-3-hydroxy-3-methylbutyl)-6-(6-((2-hydroxy-2-methylpropyl)amino)imidazo[1,2-b]pyridazin-3-yl)-4-(isopropylamino)nicotinamide]
34	CNC(=O)[C@H]1CC[C@H](NC(=O)c2cnc(-c3cnn4cc(C#N)cnc34)cc2NC(C)C)CC1 [Example 88, 6-(6-cyanopyrazolo[1,5-a]pyrimidin-3-yl)-4-(isopropylamino)-N-((1r,4r)-4-(methylcarbamoyl)cyclohexyl)nicotinamide]
52	CC(C)(O)[C@H](F)CNC(=O)c1cnc(-c2cnn3cc(C#N)cnc23)cc1NCC1(O)COC1 [Example 121, (R)-6-(6-cyanopyrazolo[1,5-a]pyrimidin-3-yl)-N-(2-fluoro-3-hydroxy-3-methylbutyl)-4-(((3-hydroxyoxetan-3-yl)methyl)amino)nicotinamide]
13	COc1cnn2c(-c3cc(NC(C)C)c(C(=O)NC[C@@H](F)C(C)(C)O)cn3)cnc2c1 [Example 153, (R)—N-(2-fluoro-3-hydroxy-3-methylbutyl)-4-(isopropylamino)-6-(7-methoxyimidazo[1,2-b]pyridazin-3-yl)nicotinamide]
75	C[C@@H](CO)Nc1cc(-c2cnc3cccnn23)ncc1C(=O)NCCC(C)(C)O [Example 137, (S)—N-(3-hydroxy-3-methylbutyl)-4-((1-hydroxypropan-2-yl)amino)-6-(imidazo[1,2-b]pyridazin-3-yl)nicotinamide]
19	C[C@@H](CO)Nc1cc(-c2cnc3cccnn23)ncc1C(=O)NC[C@@H](F)C(C)(C)O [Example 136, N—((R)-2-fluoro-3-hydroxy-3-methylbutyl)-4-(((S)-1-hydroxypropan-2-yl)amino)-6-(imidazo[1,2-b]pyridazin-3-yl)nicotinamide]
30	CC(C)(O)[C@H](F)CNC(=O)c1cnc(-c2cnn3cc(C#N)cnc23)cc1NCC1(O)CCCOC1 (single isomer, unassigned) [Example 122]
36	CC(C)(O)[C@H]1CC[C@H](NC(=O)c2cnc(-c3cnc4cccnn34)cc2NC2COC2)CC1 [Example 133, N-((1r,4r)-4-(2-hydroxypropan-2-yl)cyclohexyl)-6-(imidazo[1,2-b]pyridazin-3-yl)-4-(oxetan-3-ylamino)nicotinamide]
3	CC(C)Nc1cc(-c2cnn3cc(F)c(N)nc23)ncc1C(=O)NC[C@@H](F)C(C)(C)O [Example 129, (R)-6-(5-amino-6-fluoropyrazolo[1,5-a]pyrimidin-3-yl)-N-(2-fluoro-3-hydroxy-3-methylbutyl)-4-(isopropylamino)nicotinamide]
92	CC(C)(O)[C@H](F)CNC(=O)c1cnc(-c2cnc3cccnn23)cc1NC1COCC1O (single isomer, unassigned) [Example 134]
21	CC(C)(O)[C@H](F)CNC(=O)c1cnc(-c2cnn3cc(C#N)cnc23)cc1N[C@H]1COC[C@@H]1F (single isomer, unassigned) [Example 116]
3	CC(C)Nc1cc(-c2cnc3ccc(NCCO)nn23)ncc1C(=O)NC[C@@H](F)C(C)(C)O [Example 139, (R)—N-(2-fluoro-3-hydroxy-3-methylbutyl)-6-(6-((2-hydroxyethyl)amino)imidazo[1,2-b]pyridazin-3-yl)-4-(isopropylamino)nicotinamide]
94	C[C@H](Nc1cc(-c2cnn3cc(C#N)cnc23)ncc1C(=O)NC[C@@H](F)C(C)(C)O)C(C)(C)O [Example 100, 6-(6-cyanopyrazolo[1,5-a]pyrimidin-3-yl)-N—((R)-2-fluoro-3-hydroxy-3-methylbutyl)-4-(((S)-3-hydroxy-3-methylbutan-2-yl)amino)nicotinamide]
12	CO[C@H]1CC[C@H](NC(=O)c2cnc(-c3cnn4cc(C#N)cnc34)cc2NC2COC2)CC1 [Example 124, 6-(6-cyanopyrazolo[1,5-a]pyrimidin-3-yl)-N-((1r,4r)-4-methoxycyclohexyl)-4-(oxetan-3-ylamino)nicotinamide]
12	CC(C)Nc1cc(-c2cnc3ccc(N)nn23)ncc1C(=O)NC[C@@H](F)C(C)(C)O [Example 150, (R)-6-(6-aminoimidazo[1,2-b]pyridazin-3-yl)-N-(2-fluoro-3-hydroxy-3-methylbutyl)-4-(isopropylamino)nicotinamide]
18	COc1ccc2ncc(-c3cc(NC(C)C)c(C(=O)NC[C@@H](F)C(C)(C)O)cn3)n2n1 [Example 149, (R)—N-(2-fluoro-3-hydroxy-3-methylbutyl)-4-(isopropylamino)-6-(6-methoxyimidazo[1,2-b]pyridazin-3-yl) nicotinamide]
